The results in this text go back to paper PMC6049614 (Chemical Communications (Cambridge, England), 2018).

Where a SMILES comes first, the peptide text is derived from it. Bridges are numbered along the chain shown (N, C = ends). [ ]: non-standard residue; d: D form. Mpa = O=C(O)CCS

Type in all cases: binding
One test concerns the target T1, human OTR (Homo sapiens, UniProt P30559).
T1 construct: expressed in transfected cells
T1 sequence (P30559 1-389): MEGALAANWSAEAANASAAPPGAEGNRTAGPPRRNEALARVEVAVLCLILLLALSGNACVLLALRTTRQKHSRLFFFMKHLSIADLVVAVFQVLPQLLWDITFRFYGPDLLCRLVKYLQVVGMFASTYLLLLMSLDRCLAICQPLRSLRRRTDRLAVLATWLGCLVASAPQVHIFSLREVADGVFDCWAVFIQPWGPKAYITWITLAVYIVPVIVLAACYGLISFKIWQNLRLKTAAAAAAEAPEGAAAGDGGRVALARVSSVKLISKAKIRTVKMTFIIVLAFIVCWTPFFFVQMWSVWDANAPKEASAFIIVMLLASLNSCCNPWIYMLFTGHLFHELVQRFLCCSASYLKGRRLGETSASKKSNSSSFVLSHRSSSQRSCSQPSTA
The experiment in a line: Scintillation proximity assay, displacement of [3H]OT from human OTR. Particulars: for Ki: human OTR. The text has this:
(§1) OT analogues were screened in scintillation proximity assays that displace [^3H]OT or [^3H]AVP from the corresponding receptors. […]
(§2) All RCYs reported are decay corrected to the time of 18F delivery. The protocols for performing
(§3) receptor radioligand binding and potency studies on transfected cells to determine affinity
On the technique in general: SPA uses beads or plates that emit light when radiolabelled molecules are held near them.

The next test has as its target T2, human V1a receptors (Homo sapiens, UniProt P37288).
T2 construct: expressed in transfected cells
The test is described as follows: Scintillation proximity assay, displacement of [3H]AVP from human V1a receptor.
Source text: as §1, §2, §3

The target of test [1] is T3, human vasopressin receptor V2 (Homo sapiens, UniProt P30518).
T3 construct: expressed in transfected cells
The experiment in a line: Scintillation proximity assay, displacement of [3H]AVP from human V2 receptor.
Source text: as §1, §2, §3

T2 sequence (P37288 whole entry): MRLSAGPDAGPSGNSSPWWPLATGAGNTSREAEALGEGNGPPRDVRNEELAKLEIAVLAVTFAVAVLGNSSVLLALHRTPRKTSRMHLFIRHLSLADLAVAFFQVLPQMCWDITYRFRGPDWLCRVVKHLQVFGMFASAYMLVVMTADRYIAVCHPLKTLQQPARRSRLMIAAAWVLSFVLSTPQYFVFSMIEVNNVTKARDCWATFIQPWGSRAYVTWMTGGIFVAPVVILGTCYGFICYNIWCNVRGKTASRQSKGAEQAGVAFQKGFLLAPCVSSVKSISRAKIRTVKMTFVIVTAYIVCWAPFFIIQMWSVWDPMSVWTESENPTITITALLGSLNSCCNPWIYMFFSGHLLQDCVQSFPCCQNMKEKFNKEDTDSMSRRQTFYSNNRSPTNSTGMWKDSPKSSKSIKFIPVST
T3 sequence (P30518 whole entry): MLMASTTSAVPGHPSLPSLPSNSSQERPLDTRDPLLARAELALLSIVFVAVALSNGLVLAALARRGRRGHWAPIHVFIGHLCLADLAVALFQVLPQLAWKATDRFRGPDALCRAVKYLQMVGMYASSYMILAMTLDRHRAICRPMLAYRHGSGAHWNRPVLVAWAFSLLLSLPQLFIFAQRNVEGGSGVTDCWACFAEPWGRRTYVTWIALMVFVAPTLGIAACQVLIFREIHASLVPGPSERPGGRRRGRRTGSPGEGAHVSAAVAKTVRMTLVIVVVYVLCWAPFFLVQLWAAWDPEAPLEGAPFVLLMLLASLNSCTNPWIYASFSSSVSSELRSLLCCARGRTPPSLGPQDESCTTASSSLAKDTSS

By Ki is commonly meant the equilibrium dissociation constant of an inhibitor or competing ligand from its target. Lower therefore signals a stronger hold on the target. As for `CC[C@H](C)[C@@H]1NC(=O)[C@H](Cc2ccc(O)cc2)NC(=O)CCSSC[C@@H](C(=O)N2CCC[C@H]2C(=O)N[C@@H](CCCCN)C(=O)NCC(N)=O)NC(=O)[C@H](CC(N)=O)NC(=O)[C@H](CCC(N)=O)NC1=O` [dLVTc, reference compound] ([Mpa]YIQNCPKG-NH2; disulfide 1-6), on human OTR (OTR over V1a, from Ki values of Table 1), the “selectivity towards OTR” value is recorded as roughly 7 fold. For the same molecule, the Ki came out at 3.4 ± 1 nM at human OTR, 24 ± 5 nM at human V1a receptors and 4840 ± 1670 nM in test [1].
As to `CC[C@H](C)[C@H](NC(=O)[C@H](Cc1ccc(O)cc1)NC(=O)CCS)C(=O)N[C@@H](CCC(N)=O)C(=O)N[C@@H](CC(N)=O)C(=O)N[C@@H](CS)C(=O)N1CCC[C@H]1C(=O)N[C@@H](CCCCN)C(=O)NCC(N)=O` [dLVToc] ([Mpa]YIQNCPKG-NH2), the Ki came out at 6.3 ± 3.6 nM on human OTR, 31 ± 9 nM on human V1a receptors and 5820 ± 1700 nM in test [1].
On to `CC[C@H](C)[C@H](NC(=O)[C@H](Cc1ccc(O)cc1)NC(=O)CCS)C(=O)N[C@@H](CCC(N)=O)C(=O)N[C@@H](CC(N)=O)C(=O)N[C@@H](CS)C(=O)N1CCC[C@H]1C(=O)N[C@@H](CC(C)C)C(=O)NCC(N)=O` [dOToc], for which the figures for the Ki at human OTR and at human V1a receptors were 1.2 ± 0.9 nM and 362 ± 124 nM, respectively.
In the same order, the values of `CC[C@H](C)[C@@H]1NC(=O)[C@H](Cc2ccc(O)cc2)NC(=O)CCSSC[C@@H](C(=O)N2CCC[C@H]2C(=O)N[C@@H](CC(C)C)C(=O)NCC(N)=O)NC(=O)[C@H](CC(N)=O)NC(=O)[C@H](CCC(N)=O)NC1=O` [dOTc] are 1.6 ± 1.3 nM and 388 ± 157 nM.
